These results are taken from patent US20240158392A1 (Janssen Biotech, Inc., priority 2021, published 2024).

Assay [1] concerns the target T1, SIK2 (Homo sapiens, UniProt Q9H0K1). Kind of assay: SIK2 Enzymatic Assay Version 1 (ADP Glo). The assay is classed as biochemical. As to conditions: enzyme 0.6 nM, 160 μM ATP and 140 μM HDAC5tide (each 2× final concentration); 30 minutes pre-incubation, 4 hours; ADPGlo luminescence; read-out: SIK2 ADP Glo IC50 (μM) (Test Example 1). The method, boiled down: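 Kinase activity read as ADP production by ADP-Glo luminescence, all steps at room temperature. Compound and SIK2 (0.6 nM, a 2× concentration) were preincubated 30 min; ATP-only wells lacking peptide were the negative control; depletion 40 min, detection ≥30 min.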

The target of assay [2] is T1, SIK2. Kind of assay: SIK2 Enzymatic Assay High Version 2 (High ATP). It is filed as biochemical. The method, boiled down:
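At room temperature, enzyme (6 nM, 2× final) was preincubated with compound for 30 min, then 6 mM ATP and 400 μM HDAC5tide (both 2× final) were added for 2 h. ADP formed was measured by ADP-Glo Max (2 h reagent, 1 h detection) using luminescence.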

T1 sequence (Q9H0K1 whole entry, species assumed): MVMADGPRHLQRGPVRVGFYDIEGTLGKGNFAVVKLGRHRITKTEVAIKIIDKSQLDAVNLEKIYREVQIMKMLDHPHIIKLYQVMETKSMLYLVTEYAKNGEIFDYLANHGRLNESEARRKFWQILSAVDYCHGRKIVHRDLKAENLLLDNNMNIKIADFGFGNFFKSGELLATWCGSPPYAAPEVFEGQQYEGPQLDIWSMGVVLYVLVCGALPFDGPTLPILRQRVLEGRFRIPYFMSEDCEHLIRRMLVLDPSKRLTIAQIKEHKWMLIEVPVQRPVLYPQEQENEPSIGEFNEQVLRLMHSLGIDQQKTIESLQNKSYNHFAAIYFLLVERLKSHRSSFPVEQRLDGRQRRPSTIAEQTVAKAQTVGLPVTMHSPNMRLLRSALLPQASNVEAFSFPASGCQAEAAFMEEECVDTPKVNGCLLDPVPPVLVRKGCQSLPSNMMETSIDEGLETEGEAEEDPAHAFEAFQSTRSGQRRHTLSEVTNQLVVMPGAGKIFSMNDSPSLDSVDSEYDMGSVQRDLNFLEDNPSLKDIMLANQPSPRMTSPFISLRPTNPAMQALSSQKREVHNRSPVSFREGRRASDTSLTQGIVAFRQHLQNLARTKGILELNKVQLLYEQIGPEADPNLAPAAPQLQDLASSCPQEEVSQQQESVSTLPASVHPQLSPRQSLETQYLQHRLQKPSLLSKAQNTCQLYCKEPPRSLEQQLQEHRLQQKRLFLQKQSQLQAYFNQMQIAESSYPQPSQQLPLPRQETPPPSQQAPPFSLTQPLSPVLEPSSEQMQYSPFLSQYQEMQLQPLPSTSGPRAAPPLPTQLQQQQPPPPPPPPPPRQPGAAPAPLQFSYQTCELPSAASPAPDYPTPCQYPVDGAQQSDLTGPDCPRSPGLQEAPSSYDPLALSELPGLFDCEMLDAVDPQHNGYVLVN

A word on the IC50: it is the midpoint of a concentration-inhibition curve. On to `N#Cc1cc(-c2ccn3nc(NC(=O)C4CC4)cc3c2)c(OCC2CNC2)cn1` [Example 23, N-[5-[5-(azetidin-3-ylmethoxy)-2-cyano-4-pyridyl]pyrazolo[1,5-a]pyridin-2-yl]cyclopropanecarboxamide], for which the figures for the IC50 on SIK2 [1] and at SIK2 [2] were 0.0021 µM and 16.3 nM, respectively.

As for `N#Cc1cc(-c2ccn3nc(NC(=O)C4CC4)cc3c2)c(O[C@@H]2C[C@H]3C[C@@H]2CN3)cn1` [Example 24, N-[5-[5-[[(1R,4R,5R)-2-azabicyclo[2.2.1]heptan-5-yl]oxy]-2-cyano-4-pyridyl]pyrazolo[1,5-a]pyridin-2-yl]cyclopropanecarboxamide], the IC50 was determined as 0.00594 µM on SIK2 [1] and 145 nM against SIK2 [2].

With `CN1[C@@H]2CC[C@H]1C[C@H](COc1cnc(C#N)cc1-c1ccn3nc(NC(=O)C4CC4)cc3c1)C2` [Example 27, N-[5-[2-cyano-5-[[(1S,5R)-8-methyl-8-azabicyclo[3.2.1]octan-3-yl]methoxy]-4-pyridyl]pyrazolo[1,5-a]pyridin-2-yl]cyclopropanecarboxamide], the IC50 on SIK2 [1] was 0.00474 µM; against SIK2 [2], 98.7 nM.

As for `N#Cc1cc(-c2ccn3nc(NC(=O)C4CC4)cc3c2)c(OC2CNC2)cn1` [Example 31, N-[5-[5-(azetidin-3-yloxy)-2-cyano-4-pyridyl]pyrazolo[1,5-a]pyridin-2-yl]cyclopropanecarboxamide], the IC50 came to 0.00705 µM on SIK2 [1] and 111 nM at SIK2 [2].

For the compound `CN1CC(COc2cnc(C#N)cc2-c2ccn3nc(NC(=O)C4CC4)cc3c2)C1` [Example 32, N-[5-[2-cyano-5-[(1-methylazetidin-3-yl)methoxy]-4-pyridyl]pyrazolo[1,5-a]pyridin-2-yl]cyclopropanecarboxamide], the IC50 at SIK2 [1] is 0.0034 µM; at SIK2 [2] it was 81.3 nM.

Consider `CN1CCO[C@@H](COc2cnc(C#N)cc2-c2ccn3nc(NC(=O)C4CC4)cc3c2)C1` [Example 36, (R)—N-(5-(2-cyano-5-((4-methylmorpholin-2-yl)methoxy)pyridin-4-yl)pyrazolo[1,5-a]pyridin-2-yl)cyclopropanecarboxamide], for which the IC50 on SIK2 [1] was found to be 0.00321 µM; on SIK2 [2], 20.1 nM.

Regarding `CN1CCC[C@@H](COc2cnc(C#N)cc2-c2ccn3nc(NC(=O)C4CC4)cc3c2)C1` [Example 37, (R)—N-(5-(2-cyano-5-((1-methylpiperidin-3-yl)methoxy)pyridin-4-yl)pyrazolo[1,5-a]pyridin-2-yl)cyclopropanecarboxamide], the IC50 at SIK2 [1] was determined as 0.00725 µM; at SIK2 [2] it was 111 nM.

Turning to `CN1CCC[C@H](COc2cnc(C#N)cc2-c2ccn3nc(NC(=O)C4CC4)cc3c2)C1` [Example 38, (S)—N-(5-(2-cyano-5-((1-methylpiperidin-3-yl)methoxy)pyridin-4-yl)pyrazolo[1,5-a]pyridin-2-yl)cyclopropanecarboxamide], the IC50 is 0.014 µM on SIK2 [1] and 305 nM on SIK2 [2].

With `CN1CCO[C@H](COc2cnc(C#N)cc2-c2ccn3nc(NC(=O)C4CC4)cc3c2)C1` [Example 39, N-[5-[2-cyano-5-[[(2S)-4-methylmorpholin-2-yl]methoxy]-4-pyridyl]pyrazolo[1,5-a]pyridin-2-yl]cyclopropanecarboxamide], the IC50 on SIK2 [1] came to 0.00152 µM; against SIK2 [2], 36 nM.

For the compound `N#Cc1cc(-c2ccn3nc(NC(=O)C4CC4)cc3c2)c(OCC23CCC(CC2)C(=O)N3)cn1` [Example 40, N-[5-[2-cyano-5-[(2-oxo-3-azabicyclo[2.2.2]octan-4-yl)methoxy]-4-pyridyl]pyrazolo[1,5-a]pyridin-2-yl]cyclopropanecarboxamide], the concentration for half-maximal inhibition (IC50) at SIK2 [1] amounted to 0.0047 µM; at SIK2 [2], 87.6 nM.

Regarding `N#Cc1cc(-c2ccn3nc(NC(=O)C4CC4)cc3c2)c(OCC2(O)CCC2)cn1` [Example 41, N-[5-[2-cyano-5-[(1-hydroxycyclobutyl)methoxy]-4-pyridyl]pyrazolo[1,5-a]pyridin-2-yl]cyclopropanecarboxamide], the half-inhibitory concentration (IC50) at SIK2 [1] was 0.00243 µM; at SIK2 [2], 58.5 nM.

For `N#Cc1cc(-c2ccn3nc(NC(=O)C4CC4)cc3c2)c(OCC2(O)CCCC2)cn1` [Example 42, N-[5-[2-cyano-5-[(1-hydroxycyclopentyl)methoxy]-4-pyridyl]pyrazolo[1,5-a]pyridin-2-yl]cyclopropanecarboxamide], the IC50 on SIK2 [1] worked out at 0.00169 µM; against SIK2 [2], 45.5 nM.

As to `N#Cc1cc(-c2ccn3nc(NC(=O)C4CC4)cc3c2)c(OCC2CCNCC2)cn1` [Example 43, N-[5-[2-cyano-5-(4-piperidylmethoxy)-4-pyridyl]pyrazolo[1,5-a]pyridin-2-yl]cyclopropanecarboxamide], the half-maximal inhibitory concentration (IC50) on SIK2 [1] amounted to 0.000938 µM; against SIK2 [2], 10.8 nM.

`N#Cc1cc(-c2ccn3nc(NC(=O)C4CC4)cc3c2)c(OCC2(N)CCC2)cn1` [Example 44, N-[5-[5-[(1-aminocyclobutyl)methoxy]-2-cyano-4-pyridyl]pyrazolo[1,5-a]pyridin-2-yl]cyclopropanecarboxamide]: the IC50 at SIK2 [1] came out at 0.00124 µM; against SIK2 [2] it was 26 nM.

As for `N#Cc1cc(-c2ccn3nc(NC(=O)C4CC4)cc3c2)c(OC2CC2)cn1` [Example 46, N-[5-[2-Cyano-5-(cyclopropoxy)-4-pyridyl]pyrazolo[1,5-a]pyridin-2-yl]cyclopropanecarboxamide], the figures for the IC50 at SIK2 [1] and against SIK2 [2] were 0.0141 µM and 185 nM, respectively.

As to `N#Cc1cc(-c2ccn3nc(NC(=O)C4CC4)cc3c2)c(OCc2cccnc2)cn1` [Example 47, N-[5-[2-Cyano-5-(3-pyridylmethoxy)-4-pyridyl]pyrazolo[1,5-a]pyridin-2-yl]cyclopropanecarboxamide], the IC50 came out at 0.0135 µM at SIK2 [1] and 154 nM at SIK2 [2].

As to `N#Cc1cc(-c2ccn3nc(NC(=O)C4CC4)cc3c2)c(OCc2ccccn2)cn1` [Example 48, N-(5-(2-Cyano-5-(pyridin-2-ylmethoxy)pyridin-4-yl)pyrazolo[1,5-a]pyridin-2-yl)cyclopropanecarboxamide], the IC50 at SIK2 [1] amounted to 0.0109 µM; against SIK2 [2], 118 nM.

For `CN1CCC(COc2cnc(C#N)cc2-c2ccn3nc(NC(=O)C4CC4)cc3c2)CC1` [Example 51, N-[5-[2-cyano-5-[(1-methyl-4-piperidyl)methoxy]-4-pyridyl]pyrazolo[1,5-a]pyridin-2-yl]cyclopropanecarboxamide], the values for the concentration for half-maximal inhibition (IC50) on SIK2 [1] and at SIK2 [2] were 0.00509 µM and 116 nM, respectively.

Turning to `CC(C)(O)COc1cnc(C#N)cc1-c1ccn2nc(NC(=O)C3CC3)cc2c1` [Example 52, N-[5-[2-Cyano-5-(2-hydroxy-2-methyl-propoxy)-4-pyridyl]pyrazolo[1,5-a]pyridin-2-yl]cyclopropanecarboxamide], the results for the IC50 at SIK2 [1] and on SIK2 [2] were 0.00206 µM and 31.8 nM, respectively.

Take `N#Cc1cc(-c2ccn3nc(NC(=O)C4CC4)cc3c2)c(OC[C@H]2CC[C@H](O)CC2)cn1` [Example 53, trans-N-(5-(2-Cyano-5-(((1r,4r)-4-hydroxycyclohexyl)methoxy)pyridin-4-yl)pyrazolo[1,5-a]pyridin-2-yl)cyclopropanecarboxamide]: the IC50 on SIK2 [1] came to 0.000641 µM; at SIK2 [2] it was 13.5 nM.

`CC(=O)N1CCC(COc2cnc(C#N)cc2-c2ccn3nc(NC(=O)C4CC4)cc3c2)CC1` [Example 60, N-[5-[5-[(1-acetyl-4-piperidyl)methoxy]-2-cyano-4-pyridyl]pyrazolo[1,5-a]pyridin-2-yl]cyclopropanecarboxamide]: the IC50 turned out to be 0.00492 µM on SIK2 [1] and 98.6 nM against SIK2 [2].

On to `C[C@H](O)COc1cnc(C#N)cc1-c1ccn2nc(NC(=O)C3CC3)cc2c1` [Example 63, N-[5-[2-cyano-5-[(2S)-2-hydroxypropoxy]-4-pyridyl]pyrazolo[1,5-a]pyridin-2-yl]cyclopropanecarboxamide], for which the IC50 turned out to be 0.00426 µM at SIK2 [1] and 78.6 nM against SIK2 [2].

For the compound `N#Cc1cc(-c2ccn3nc(NC(=O)C4CC4)cc3c2)c(O[C@H]2CC[C@H](O)CC2)cn1` [Example 64, N-[5-[2-cyano-5-(4-hydroxycyclohexoxy)-4-pyridyl]pyrazolo[1,5-a]pyridin-2-yl]cyclopropanecarboxamide], the IC50 at SIK2 [1] was found to be 0.000387 µM; on SIK2 [2], 8.63 nM.

As for `CN1[C@@H]2CC[C@H]1C[C@@H](Oc1cnc(C#N)cc1-c1ccn3nc(NC(=O)C4CC4)cc3c1)C2` [Example 66, N-[5-[2-cyano-5-[[(1S,5R)-8-methyl-8-azabicyclo[3.2.1]octan-3-yl]oxy]-4-pyridyl]pyrazolo[1,5-a]pyridin-2-yl]cyclopropanecarboxamide], the values for the IC50 at SIK2 [1] and against SIK2 [2] were 0.000561 µM and 8.5 nM, respectively.

In the case of `N#Cc1cc(-c2ccn3nc(NC(=O)C4CC4)cc3c2)c(OC[C@@H]2C[C@H]3CC[C@@H](C2)N3)cn1` [Example 67, N-[5-[5-[[(1S,5R)-8-azabicyclo[3.2.1]octan-3-yl]methoxy]-2-cyano-4-pyridyl]pyrazolo[1,5-a]pyridin-2-yl]cyclopropanecarboxamide], the half-maximal inhibitory concentration (IC50) on SIK2 [1] came out at 0.000631 µM; against SIK2 [2], 8.63 nM.

For the compound `N#Cc1cc(-c2ccn3nc(NC(=O)C4CC4)cc3c2)c(OC[C@H]2C[C@@H](O)C2)cn1` [Example 68, N-[5-[2-cyano-5-[(3-hydroxycyclobutyl)methoxy]-4-pyridyl]pyrazolo[1,5-a]pyridin-2-yl]cyclopropanecarboxamide], the IC50 at SIK2 [1] was determined as 0.000666 µM; on SIK2 [2], 24 nM.

Regarding `N#Cc1cc(-c2ccn3nc(NC(=O)C4CC4)cc3c2)c(O[C@H]2C[C@@H](CO)C2)cn1` [Example 69, N-[5-[2-cyano-5-[3-(hydroxymethyl)cyclobutoxy]-4-pyridyl]pyrazolo[1,5-a]pyridin-2-yl]cyclopropanecarboxamide], the IC50 stood at 0.0028 µM at SIK2 [1] and 38.3 nM against SIK2 [2].
